Source: the supplement of paper PMC10307832

Tests used:
Test in all cases: relative viability (nuclei count vs DMSO), 5 days (fraction); higher = more cells survive
LXF-289 = test system: LXF-289
How it was run: (§1)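 Medians of duplicate plates are given as relative viability. That measure is the nuclei count in treated wells divided by the count in vehicle wells. Counts were taken on 4× images of lung cancer cell lines in 1536-well plates, 5 days after pin-tool dosing the day after seeding with one drug alone or a fixed anchor-drug dose plus five library-drug doses (not always all listed) in √10 steps.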

UMC-11 = test system: UMC-11
How it was run: as §1

LK-2 = test system: LK-2
How it was run: as §1

HCC-827 = test system: HCC-827
How it was run: as §1

NCI-H2405 = test system: NCI-H2405
How it was run: as §1

NCI-H3122 = test system: NCI-H3122
How it was run: as §1

EKVX = test system: EKVX
How it was run: as §1

LCLC-97TM1 = test system: LCLC-97TM1
How it was run: as §1

NCI-H1355 = test system: NCI-H1355
How it was run: as §1

SK-LU-1 = test system: SK-LU-1
How it was run: as §1

NCI-H441 = test system: NCI-H441
How it was run: as §1

NCI-H2170 = test system: NCI-H2170
How it was run: as §1

PC-3 [JPC-3] = test system: PC-3 [JPC-3]
How it was run: as §1

NCI-H1993 = test system: NCI-H1993
How it was run: as §1

H3255 = test system: H3255
How it was run: as §1

LU99A = test system: LU99A
How it was run: as §1

SW 1573 = test system: SW 1573
How it was run: as §1

HOP-62 = test system: HOP-62
How it was run: as §1

EPLC-272H = test system: EPLC-272H
How it was run: as §1

NCI-H2228 = test system: NCI-H2228
How it was run: as §1

## Cc1cn(-c2cc(NC(=O)c3ccc(C)c(Nc4nccc(-c5cccnc5)n4)c3)cc(C(F)(F)F)c2)cn1 [Nilotinib] + Cc1nc(NC(=O)N2CCC[C@H]2C(N)=O)sc1-c1ccnc(C(C)(C)C(F)(F)F)c1 [Alpelisib] (partner 2 µM)
LXF-289; first compound 0.001 µM
  relative viability: 1.02
LXF-289; first compound 0.003162 µM
  relative viability: 1.26
LXF-289; first compound 0.01 µM
  relative viability: 1.23
LXF-289; first compound 0.03162 µM
  relative viability: 0.935
LXF-289; first compound 0.1 µM
  relative viability: 0.93
UMC-11; first compound 0.001 µM
  relative viability: 0.928
UMC-11; first compound 0.003162 µM
  relative viability: 1.15
UMC-11; first compound 0.01 µM
  relative viability: 1.07
UMC-11; first compound 0.1 µM
  relative viability: 1.22
LK-2; first compound 0.001 µM
  relative viability: 1.16
LK-2; first compound 0.003162 µM
  relative viability: 0.966
LK-2; first compound 0.03162 µM
  relative viability: 1
LK-2; first compound 0.1 µM
  relative viability: 1.22
HCC-827; first compound 0.001 µM
  relative viability: 1.1
HCC-827; first compound 0.003162 µM
  relative viability: 1.09
HCC-827; first compound 0.01 µM
  relative viability: 1.03
HCC-827; first compound 0.1 µM
  relative viability: 0.92
NCI-H2405; first compound 0.001 µM
  relative viability: 0.808
NCI-H2405; first compound 0.003162 µM
  relative viability: 0.733
NCI-H2405; first compound 0.01 µM
  relative viability: 0.715
NCI-H2405; first compound 0.03162 µM
  relative viability: 0.597
NCI-H2405; first compound 0.1 µM
  relative viability: 0.486
NCI-H3122; first compound 0.001 µM
  relative viability: 0.941
NCI-H3122; first compound 0.003162 µM
  relative viability: 0.925
NCI-H3122; first compound 0.01 µM
  relative viability: 0.87
NCI-H3122; first compound 0.03162 µM
  relative viability: 0.683
NCI-H3122; first compound 0.1 µM
  relative viability: 0.587
EKVX; first compound 0.001 µM
  relative viability: 0.813
EKVX; first compound 0.003162 µM
  relative viability: 1.13
EKVX; first compound 0.01 µM
  relative viability: 1.29
EKVX; first compound 0.03162 µM
  relative viability: 0.909
EKVX; first compound 0.1 µM
  relative viability: 1.02
LCLC-97TM1; first compound 0.003162 µM
  relative viability: 0.311
LCLC-97TM1; first compound 0.01 µM
  relative viability: 0.279
LCLC-97TM1; first compound 0.03162 µM
  relative viability: 0.22
LCLC-97TM1; first compound 0.1 µM
  relative viability: 0.275
NCI-H1355; first compound 0.001 µM
  relative viability: 0.764
NCI-H1355; first compound 0.003162 µM
  relative viability: 1.08
NCI-H1355; first compound 0.01 µM
  relative viability: 0.974
NCI-H1355; first compound 0.03162 µM
  relative viability: 0.784
NCI-H1355; first compound 0.1 µM
  relative viability: 0.931
SK-LU-1; first compound 0.001 µM
  relative viability: 0.929
SK-LU-1; first compound 0.003162 µM
  relative viability: 1.03
SK-LU-1; first compound 0.01 µM
  relative viability: 1.06
SK-LU-1; first compound 0.03162 µM
  relative viability: 0.632
SK-LU-1; first compound 0.1 µM
  relative viability: 0.719
NCI-H441; first compound 0.001 µM
  relative viability: 0.761
NCI-H441; first compound 0.003162 µM
  relative viability: 1.14
NCI-H441; first compound 0.01 µM
  relative viability: 0.765
NCI-H441; first compound 0.1 µM
  relative viability: 0.951
NCI-H2170; first compound 0.001 µM
  relative viability: 0.865
NCI-H2170; first compound 0.003162 µM
  relative viability: 0.916
NCI-H2170; first compound 0.01 µM
  relative viability: 1.15
NCI-H2170; first compound 0.03162 µM
  relative viability: 0.767
NCI-H2170; first compound 0.1 µM
  relative viability: 1.07
PC-3 [JPC-3]; first compound 0.001 µM
  relative viability: 0.987
PC-3 [JPC-3]; first compound 0.003162 µM
  relative viability: 1.27
PC-3 [JPC-3]; first compound 0.01 µM
  relative viability: 1.26
PC-3 [JPC-3]; first compound 0.03162 µM
  relative viability: 1.05
PC-3 [JPC-3]; first compound 0.1 µM
  relative viability: 0.982
NCI-H1993; first compound 0.001 µM
  relative viability: 0.716
NCI-H1993; first compound 0.003162 µM
  relative viability: 0.66
NCI-H1993; first compound 0.01 µM
  relative viability: 0.755
NCI-H1993; first compound 0.03162 µM
  relative viability: 0.594
NCI-H1993; first compound 0.1 µM
  relative viability: 0.617
H3255; first compound 0.001 µM
  relative viability: 0.681
H3255; first compound 0.003162 µM
  relative viability: 0.699
H3255; first compound 0.01 µM
  relative viability: 0.829
H3255; first compound 0.03162 µM
  relative viability: 0.65
H3255; first compound 0.1 µM
  relative viability: 0.796
LU99A; first compound 0.001 µM
  relative viability: 0.495
LU99A; first compound 0.003162 µM
  relative viability: 0.531
LU99A; first compound 0.01 µM
  relative viability: 0.518
LU99A; first compound 0.03162 µM
  relative viability: 0.48
LU99A; first compound 0.1 µM
  relative viability: 0.377
SW 1573; first compound 0.001 µM
  relative viability: 0.867
SW 1573; first compound 0.003162 µM
  relative viability: 0.764
SW 1573; first compound 0.01 µM
  relative viability: 0.92
SW 1573; first compound 0.03162 µM
  relative viability: 0.594
SW 1573; first compound 0.1 µM
  relative viability: 0.682
HOP-62; first compound 0.001 µM
  relative viability: 0.889
HOP-62; first compound 0.003162 µM
  relative viability: 0.843
HOP-62; first compound 0.01 µM
  relative viability: 1.13
HOP-62; first compound 0.03162 µM
  relative viability: 0.742
HOP-62; first compound 0.1 µM
  relative viability: 0.7
EPLC-272H; first compound 0.003162 µM
  relative viability: 1.01
EPLC-272H; first compound 0.03162 µM
  relative viability: 0.894
EPLC-272H; first compound 0.1 µM
  relative viability: 0.763
NCI-H2228; first compound 0.001 µM
  relative viability: 0.602
NCI-H2228; first compound 0.003162 µM
  relative viability: 0.763
NCI-H2228; first compound 0.01 µM
  relative viability: 0.814
NCI-H2228; first compound 0.03162 µM
  relative viability: 0.813
NCI-H2228; first compound 0.1 µM
  relative viability: 0.455
